From patent US20240148821A1, “PHARMACEUTICAL USE OF CYCLIC PEPTIDE COMPOUND” (CHUGAI SEIYAKU KABUSHIKI KAISHA, priority 2021, published 2024)
Numbered stars: 1 amine (or outer) side, 2 acyl side, 3 side chain; on linkers, the order of the positions; unused ones are H or OH. Bridge positions count the residues as written; N and C are the ends. Square brackets hold non-standard residues; d marks the D form. Peptide text beside a SMILES is read from it. * marks the point of attachment. hPhe(3,5-F2-4-CF3) = N[C@@H](CCc1cc(F)c(C(F)(F)F)c(F)c1)C(=O)O; hPhe(3-Cl-4-CF3) = N[C@@H](CCc1ccc(C(F)(F)F)c(Cl)c1)C(=O)O; hPhe(3-F,4-CF3) = N[C@@H](CCc1ccc(C(F)(F)F)c(F)c1)C(=O)O; NEtPhe(4-CF3) = CCN[C@@H](Cc1ccc(C(F)(F)F)cc1)C(=O)O; NEtAsp = CCN([C@@H](CC(=O)[*:3])C(=O)[*:2])[*:1]; 3Oxa8azabicyclo(3.2.1)octane = C1CC2COCC1N2*; NMePhe(4-Me) = CN[C@@H](Cc1ccc(C)cc1)C(=O)O; NMePhe(4-F) = CN[C@@H](Cc1ccc(F)cc1)C(=O)O; NMedβ3hAla = C[C@H](CC(=O)[*:2])N(C)[*:1]; NMeGly(cPent) = CN[C@H](C(=O)O)C1CCCC1; Pro(4,4-F2) = O=C(O)[C@@H]1CC(F)(F)CN1; NMeGly(cBu) = CN[C@H](C(=O)O)C1CCC1; NMeCha = CN[C@@H](CC1CCCCC1)C(=O)O; NMeI = CC[C@H](C)[C@H](NC)C(=O)O; NMeD = CN[C@@H](CC(=O)O)C(=O)O; NMeL = CN[C@@H](CC(C)C)C(=O)O; NEtAla = CCN[C@@H](C)C(=O)O; NMeV = CN[C@H](C(=O)O)C(C)C; d(β3hA) = C[C@@H](N)CC(=O)O; NMeS = CN[C@@H](CO)C(=O)O; NMeA = CN[C@@H](C)C(=O)O; Piperidide = C1CCN(*)CC1; Ac5c = NC1(C(=O)O)CCCC1; Aze = O=C(O)[C@@H]1CCN1; Ac4c = NC1(C(=O)O)CCC1; Sar = CNCC(=O)O; Propyl = CCC*

What follows are compounds tested against protein-protein interaction between Kras and SOS1 (biotin-tagged human Kras loaded with GDP, His-tagged human SOS1) (Homo sapiens (Human), UniProt P01116, G12D) (assay: Protein-protein interaction inhibition between Kras and SOS1 (KrasG12D-SOS PPI) using AlphaScreen). Details: AlphaScreen; biotin-tagged human Kras loaded with GDP, His-tagged human SOS1; read-out: KRAS G12D-SOS PPI IC50.
Type: biochemical

SMILES | IC50
CC[C@H](C)[C@@H]1NC(=O)[C@H](CC(C)C)N(C)C(=O)C[C@@H](C)NC(=O)[C@H](C2CCCC2)N(C)C(=O)C2(CCCC2)NC(=O)[C@@H]2CCCN2C(=O)[C@H](CCc2ccc(C(F)(F)F)c(Cl)c2)NC(=O)CN(C)C(=O)[C@H](Cc2ccc(C)cc2)N(C)C(=O)[C@@H]2CCN2C(=O)[C@H](C)N(CC)C1=O [Compound 1023] (cyclo([Ac5c][NMeGly(cPent)][d(β3hA)][NMeL]I[NEtAla][Aze][NMePhe(4-Me)][Sar][hPhe(3-Cl-4-CF3)]P)) | 20 nM
CCCOC[C@H]1C(=O)N(C)CC(=O)N[C@@H](CCc2ccc(C(F)(F)F)c(F)c2)C(=O)N2CCC[C@H]2C(=O)NC2(CCCC2)C(=O)N(C)[C@@H](C2CCCC2)C(=O)N(C)[C@H](C(=O)N2CCCCC2)CC(=O)N(C)[C@@H](CC(C)C)C(=O)N[C@@H]([C@@H](C)CC)C(=O)N(C)[C@@H](C)C(=O)N2CC[C@H]2C(=O)N1C [Compound 1029] ([NMeL]I[NMeA][Aze][NMeS](Propyl)[Sar][hPhe(3-F,4-CF3)]P[Ac5c][NMeGly(cPent)][NMeD]-Piperidide; lactam N-11) | 1.4 nM
CCCOC[C@H]1C(=O)N(C)CC(=O)N[C@@H](CCc2ccc(C(F)(F)F)c(F)c2)C(=O)N2CCC[C@H]2C(=O)NC2(CCCC2)C(=O)N(C)[C@@H](C2CCCC2)C(=O)N(C)[C@H](C(=O)N2C3CCC2COC3)CC(=O)N(C)[C@@H](CC(C)C)C(=O)N[C@@H]([C@@H](C)CC)C(=O)N(C)[C@@H](C)C(=O)N2CC[C@H]2C(=O)N1C [Compound 1030] ([NMeL]I[NMeA][Aze][NMeS](Propyl)[Sar][hPhe(3-F,4-CF3)]P[Ac5c][NMeGly(cPent)][NMeD]-{3Oxa8azabicyclo(3.2.1)octane}; lactam N-11) | 1.7 nM
CC[C@H](C)[C@@H]1NC(=O)[C@H](C2CCC2)N(C)C(=O)C[C@@H](C(=O)N2CCCCC2)N(C)C(=O)[C@H](C(C)C)N(C)C(=O)C2(CCCC2)NC(=O)[C@@H]2CCCN2C(=O)[C@H](CCc2ccc(C(F)(F)F)c(Cl)c2)NC(=O)CN(C)C(=O)[C@H](CC2CCCCC2)N(C)C(=O)[C@@H]2CCN2C(=O)[C@H](C)N(C)C1=O [Compound 1036] ([NMeGly(cBu)]I[NMeA][Aze][NMeCha][Sar][hPhe(3-Cl-4-CF3)]P[Ac5c][NMeV][NMeD]-Piperidide; lactam N-11) | 7.7 nM
CC[C@H](C)[C@@H]1NC(=O)[C@H](CC(C)C)N(C)C(=O)C[C@@H](C(=O)N2CCCCC2)N(C)C(=O)[C@H](C(C)C)N(C)C(=O)C2(CCCC2)NC(=O)[C@@H]2CCCN2C(=O)[C@H](CCc2ccc(C(F)(F)F)c(F)c2)NC(=O)CN(C)C(=O)[C@H](CC2CCCCC2)N(C)C(=O)[C@@H]2CCN2C(=O)[C@H](C)N(C)C1=O [Compound 1040] ([NMeL]I[NMeA][Aze][NMeCha][Sar][hPhe(3-F,4-CF3)]P[Ac5c][NMeV][NMeD]-Piperidide; lactam N-11) | 14 nM
CC[C@H](C)[C@@H]1NC(=O)[C@H](CC(C)C)N(C)C(=O)C[C@@H](C)N(C)C(=O)[C@H](C2CCCC2)N(C)C(=O)C2(CCCC2)NC(=O)[C@@H]2CCCN2C(=O)[C@H](CCc2ccc(C(F)(F)F)c(Cl)c2)NC(=O)CN(C)C(=O)[C@H](C2CCCC2)N(C)C(=O)[C@@H]2CCN2C(=O)[C@H](C)N(C)C1=O [Compound 1046] (cyclo([Ac5c][NMeGly(cPent)][NMedβ3hAla][NMeL]I[NMeA][Aze][NMeGly(cPent)][Sar][hPhe(3-Cl-4-CF3)]P)) | 4.6 nM
CC[C@H](C)[C@@H]1NC(=O)[C@H](CC(C)C)N(C)C(=O)C[C@@H](C(=O)N2CCCCC2)N(CC)C(=O)[C@H](C2CCCC2)N(C)C(=O)C2(CCCC2)NC(=O)[C@@H]2CCCN2C(=O)[C@H](CCc2ccc(C(F)(F)F)c(Cl)c2)NC(=O)CN(C)C(=O)[C@H](C2CCC2)N(C)C(=O)[C@@H]2CCN2C(=O)[C@H](C)N(C)C1=O [Compound 1047] ([NMeL]I[NMeA][Aze][NMeGly(cBu)][Sar][hPhe(3-Cl-4-CF3)]P[Ac5c][NMeGly(cPent)][NEtAsp]-Piperidide; lactam N-11) | 6.3 nM
CC[C@H](C)[C@@H]1NC(=O)[C@H](CC(C)C)N(C)C(=O)C[C@@H](C)N(C)C(=O)[C@H](C2CCCC2)N(C)C(=O)C2(CCC2)NC(=O)[C@@H]2CC(F)(F)CN2C(=O)[C@H](CCc2cc(F)c(C(F)(F)F)c(F)c2)NC(=O)CN(C)C(=O)[C@H](Cc2ccc(C(F)(F)F)cc2)N(CC)C(=O)[C@@H]2CCN2C(=O)[C@H](C)N(C)C1=O [Compound 1049] (cyclo([Ac4c][NMeGly(cPent)][NMedβ3hAla][NMeL]I[NMeA][Aze][NEtPhe(4-CF3)][Sar][hPhe(3,5-F2-4-CF3)][Pro(4,4-F2)])) | 3.7 nM
CC[C@H](C)[C@@H]1NC(=O)[C@H](CC(C)C)N(C)C(=O)C[C@@H](C(=O)N2CCCCC2)N(C)C(=O)[C@H]([C@@H](C)CC)N(C)C(=O)C2(CCCC2)NC(=O)[C@@H]2CCCN2C(=O)[C@H](CCc2ccc(C(F)(F)F)c(Cl)c2)NC(=O)CN(C)C(=O)[C@H](Cc2ccc(F)cc2)N(C)C(=O)[C@@H]2CCN2C(=O)[C@H](C)N(C)C1=O [Compound 1060] ([NMeL]I[NMeA][Aze][NMePhe(4-F)][Sar][hPhe(3-Cl-4-CF3)]P[Ac5c][NMeI][NMeD]-Piperidide; lactam N-11) | 0.65 nM
